Measured values: patent US9802917B2, “Particles of N-(5-cyano-4-((2-methoxyethyl)amino)pyridin-2-yl)-7-formyl-6-((4-methyl-2-oxopiperazin-1-yl)methyl)-3,4-dihydro-1,8-naphthyridine-1(2H)-carboxamide” (Novartis AG, priority 2015, dated 2017)
Structures can show the parent of a compound that is named as a salt.

Assays:
[1] = system: HuH-7 hepatocellular carcinoma cells; experiment: Methylene blue staining proliferation assay (MBS); type: cell-based; settings: Homo sapiens, HuH-7 cells, 72 hours, read-out: HUH7 proliferation (nM) MBS
Procedure: Using a liquid handling device (Velocity 11 Bravo, Agilent), serial 3-fold dilutions of compounds were prepared in DMSO, prediluted in growth medium, followed by transfer of 10 uL/well to the cell plates. […] For data analysis, the assay background was determined in wells containing medium and lysis buffer, but no cells, and the corresponding value subtracted from all data points. […] Compound concentrations leading to half-maximal signal inhibition ([…]) were determined by standard four parametric curve fitting (XLfit 5.4, IDBS). […] Optical density was measured at A650 nm. […]

[2] = system: HuH-7 hepatocellular carcinoma cells; experiment: CellTiter Glo (CTG) proliferation/viability assay; type: cell-based; settings: Homo sapiens, 72 h, HuH-7 cells, 3 days, GI50, read-out: HUH7 proliferation (nM) CTG
Procedure: CellTiter Glo (CTG) Assay: […] Compound-mediated suppression of cell proliferation/viability is assessed by quantification of cellular ATP levels using the CellTiter-Glo (CTG) reagent (Promega, Cat# G7573). Briefly, cells are seeded at 3'000 cells/well/80 μl fresh medium into tissue-culture-treated 96-well plates (Costar Cat#3904), followed by addition of 20 μl medium containing compound dilutions at 5-fold their final intended concentration. Dose-response effects are assessed by 3-fold serial dilutions of the test compound, starting at 10 μM. Following incubation of the cells for 3 days at 37° C. and 5% CO2, the effect of inhibitors on cell viability is quantified following addition of 50 μl CTG and luminescence measurement (integration time: 500 ms) as per vendor manual, using a correspondingly equipped multi-mode plate reader ([…], TECAN, Switzerland). For data analysis, the assay background value determined in wells containing medium, but no cells, is subtracted from all data points. To enable differentiation of cytotoxic from cytostatic compounds, the number of viable cells is assessed relative to that observed at the time of compound addition using a separate cell plate (day 0). […] Compound concentrations leading to half-maximal growth inhibition (GI50) are determined using standard four parameter curve fitting (XLfit 5.2, IDBS, UK).

[3] = Basic flow energy measurement (FT4 powder rheometer); type: physicochemical; settings: 25 mm vessel, 23.5 mm blade
Procedure: Basic flow energy (BFE) is the energy required to establish a particular flow pattern in a conditioned, precise volume of powder. This flow pattern is a downward anti-clockwise motion of the blade, generating a compressive, relatively high stress flow mode in the powder. The BFE is calculated from the work done in moving the blade through the powder from the top of the vessel to the bottom, i.e. during the downward traverse.
In the present instance, the basic flow energy was measured using a FT4 powder rheometer from Freeman Technology under the following conditions: vessel size: 25 mm; standard Program Name: 25 mm_1C_Split_1 T; Starting accessory: 23.5 mm blade; Vessel: 25 mm×25 mL Split Vessel. The results were plotted in FIG. 9.

[4] = Laser diffraction particle size measurement of particles of reference example 1 (Example 4); type: physicochemical; settings: laser light diffraction, after 240 seconds sonication, FIG. 7
Description: For the measurement, a Sympatec HELOS device with a focal length of 100 mm from Sympatec GmbH, Germany, equipped with a wet dispersion device Cuvette from Sympatec GmbH, Germany was used. The test substance was dispersed in white spirit, Brenntag Schweizerhall AG, Switzerland (catalog number 12200-150) using a dispersing aid (e.g. Statsafe™ 6000, INNOSPEC Limited, ca. 1% in the white spirit).
The particles were mixed intensively, e.g. on a vortex mixer, in order to wet the substance thoroughly and to form a smooth and homogeneous paste. The paste was diluted with the white spirit to a final volume of several milliliters and the stock dispersion was mixed again.
The test dispersion was prepared by diluting of the stock dispersion with white spirit for an appropriate optical concentration and the cumulative volume distribution was determined using a laser light diffraction instrument in accordance with the instruction manual. Measurements were made before sonication and after sonication for up to 600 seconds. The parameters were set as follows: 50% amplitude at the ultrasonication device USGD-100 from Telsonic AG, and a measuring duration of about 20 seconds. The measurement was carried out twice.
The particle sizes at the undersize values of 10%, 50% and 90% (x10, x50, x90) were evaluated from the cumulative volume distribution after 240 seconds sonication. This was determined to be representative of the primary particle sizes.

[5] = Compressibility measurement (FT-4 powder rheometer); type: physicochemical; settings: measured at 15 kPa normal stress
Description: Compressibility is a measure of how density changes as a function of applied normal stress. By definition, compressibility is the percent change in volume after compression (%). The measurements were made using a FT-4 powder rheometer from Freeman technology. N-(5-cyano-4-((2-methoxyethyl)amino)pyridin-2-yl)-7-formyl-6-((4-methyl-2-oxopiperazin-1-yl)methyl)-3,4-dihydro-1,8-naphthyridine-1(2H)-carboxamide particles obtained by the process of the present invention and particles obtained by the process described in PCT/IB2014/065585 were placed in a vessel and a vented piston was used to compress the particles. The vented piston is designed such that the compression face is constructed from a woven stainless steel mesh and allows the entrained air in the powder to escape uniformly across the surface of the powder bed. A normal stress was applied in 8 sequential compression steps beginning at 0.5 kPa and ending at 15 kPa. In each step, the normal stress was held constant for 60 seconds and the compressibility was automatically calculated as a percentage change in volume. The results were plotted in FIG. 10. The compressibility percentage measured at 15 kPa was 54.14% and 54.63% for particles of the present invention. For the particles obtained by the process described in PCT/IB2014/065585, the compressibility percentage measured at 15 kPa was 49.93%.

[6] = Wall friction angle measurement (FT-4 powder rheometer, stainless steel); type: physicochemical; settings: 316 Stainless Steel discs, 1.2 microns average roughness
Description: The wall friction test method has been developed to assess the interaction between the drug substance and stainless steel. The apparatus used is a FT-4 powder rheometer from Freeman technology.
N-(5-cyano-4-((2-methoxyethyl)amino)pyridin-2-yl)-7-formyl-6-((4-methyl-2-oxopiperazin-1-yl)methyl)-3,4-dihydro-1,8-naphthyridine-1(2H)-carboxamide particles obtained by the process of the present invention and particles obtained by the process described in PCT/IB2014/065585 were placed in a vessel containing the sample and a wall friction head to induce both vertical and rotational stresses. The powder sample is prepared by conditioning and then pre-consolidation using the standard FT4 blade and vented piston.
The wall friction head equipped with 1.2 microns average roughness of 316 Stainless Steel discs moves downwards to the surface of the sample and induces a normal stress as the disc contacts the top of the sample. The head continues to move downwards until the required normal stress is established. […] The torque required to maintain this rotational is measured which enables a “steady-state” shear stress to be calculated. […] A series of shear stress values is measured for a range of target applied stresses. […] The wall friction angle is then calculated by drawing a best fit line through the data points on the graph, and measuring the angle subtended between this best fit line and the horizontal. […]

Row | SMILES | IC50 [1] [nM] | IC50 [2] [nM] | basic flow energy [3] [mJ] | median particle size (x50 or d50) [4] | particle size x10 or d10 [4] | particle size x90 or d90 [4] | basic flow energy ([3]; listed as particles obtained by the process described in PCT/IB2014/065585) [mJ] | compressibility percentage [5] [%] | wall friction angle [6] [°]
1 | COCCNc1cc(NC(=O)N2CCCc3cc(CN4CCN(C)CC4=O)c(C=O)nc32)ncc1C#N [Example 1, N-(5-cyano-4-((2-methoxyethyl)amino)pyridin-2-yl)-7-formyl-6-((4-methyl-2-oxopiperazin-1-yl)methyl)-3,4-dihydro-1,8-naphthyridine-1(2H)-carboxamide in citric acid salt form 1:1] | 12 | 60.9 | 65.07 | – | – | – | – | – | –
2 | COCCNc1cc(NC(=O)N2CCCc3cc(CN4CCN(C)CC4=O)c(C=O)nc32)ncc1C#N.O=C(O)CC(O)(CC(=O)O)C(=O)O [Example 1a, N-(5-cyano-4-((2-methoxyethyl)amino)pyridin-2-yl)-7-formyl-6-((4-methyl-2-oxopiperazin-1-yl)methyl)-3,4-dihydro-1,8-naphthyridine-1(2H)-carboxamide in citric acid form (1:1)] | – | – | 39.17 | – | – | – | – | – | –
3 | COCCNc1cc(NC(=O)N2CCCc3cc(CN4CCN(C)CC4=O)c(C=O)nc32)ncc1C#N.O=C(O)CC(O)(CC(=O)O)C(=O)O [Reference Example 1, N-(5-cyano-4-((2-methoxyethyl)amino)pyridin-2-yl)-7-formyl-6-((4-methyl-2-oxopiperazin-1-yl)methyl)-3,4-dihydro-1,8-naphthyridine-1(2H)-carboxamide in citric acid form (1:1)] | – | – | – | about 3 microns | about 1 micron | about 7 micron | 185.20 | 49.93 | 43.18
